System: PTP1B
Experiment: not given
Design: method as in PMID 23704520
Details: read-out: previously reported IC50-value (PTP1B); cited from earlier work

Row | Structure (SMILES) | IC50
1 | CC1(C)CC[C@]2(C(=O)O)CC[C@]3(C)C(=CC[C@@H]4[C@@]5(C)C[C@@H](O)[C@H](O)C(C)(C)[C@@H]5CC[C@]43C)[C@@H]2C1 [Compound 13, Maslinic acid] | 5930 nM

Target: T1, recombinant human PTP1B (Homo sapiens, UniProt P18031)
T1 construct: purchased Enzo Life Sciences Inc. BML-SE332-0050
T1 sequence (P18031 1-322 limits assumed): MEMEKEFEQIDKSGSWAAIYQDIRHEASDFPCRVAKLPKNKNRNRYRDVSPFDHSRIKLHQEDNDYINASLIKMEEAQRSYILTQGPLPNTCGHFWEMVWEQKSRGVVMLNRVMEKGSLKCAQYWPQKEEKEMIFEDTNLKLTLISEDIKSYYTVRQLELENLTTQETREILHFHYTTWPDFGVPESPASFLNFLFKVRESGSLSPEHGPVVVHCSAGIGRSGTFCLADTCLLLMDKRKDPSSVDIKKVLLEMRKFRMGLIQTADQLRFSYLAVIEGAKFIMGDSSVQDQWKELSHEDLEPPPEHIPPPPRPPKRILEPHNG
Experiment: Microplate-based PTP1B inhibition assay (pNPP substrate)
Type: biochemical
Details: n = 3; IC50 ± standard error; pH 7, 25 °C, 0.5 mM pNPP
Description: p-Nitrophenyl phosphate (pNPP), dimethyl sulfoxide (DMSO), sodium phosphate monobasic dihydrate, sodium phosphate dibasic, sodium hydroxide, sodium azide, tris-(hydroxymethyl)-aminomethane (Tris), bis-(2-hydroxyethyl)-imino-tris-(hydroxymethylmethane) (Bis-Tris), N,N,N′,N′-ethylenediaminetetraacetate (EDTA), dithiothreitol (DTT), methanol-d4, and HPLC grade acetonitrile were purchased from Sigma-Aldrich (St. Louis, MO, USA), recombinant human PTP1B (BML-SE332-0050, EC 3.1.3.48) was purchased from Enzo Life Sciences Inc. (Farmingdale, NY, USA), and formic acid was purchased from Merck (Darmstadt, Germany). Water was purified by deionization and filtration through a 0.22 μm membrane (Millipore, Billerica, MA, USA).
PTP1B inhibition assaying of the defatted extract, fraction F1 (from preparative HPLC: see Section 3.5) and microfractions (obtained as described below in Section 3.4) were performed according to the microplate-based method previously described. In brief, all solutions were prepared in a buffer of 50 mM Tris and 50 mM Bis-Tris containing 100 mM NaCL and adjusted to pH 7. […] The microplate was incubated for 10 min at 25 °C, and the reaction was started by addition of 0.001 μg/μL PTP1B stock solution (50 μL) in phosphate buffer (to give a final concentration of 0.05 µg PTP1B per well). […] For each microplate, blank samples (negative controls) containing buffer, enzyme, EDTA, DTT, and pNPP were measured in triplicate, and for the dilution series, RK682 was included as a reference inhibitory compound (i.e., positive control). The percentage inhibition of PTP1B was calculated according to the following equation: % inhibition=(1−SLOPEsample/SLOPEblank)×100
(§1) The high-resolution PTP1B biochromatograms (high-resolution PTP1B inhibition profiles) were constructed by plotting the inhibition values against the chromatographic retention time. Dose-response curves and IC50 values for dilution series of the crude extract and pure compounds were obtained using GraFit software, version 5.0.11 (Erithacus Software Limited, West Sussex, UK). For PTP1B IC50 values, the crude extract and isolated compounds were assessed by using the standard assay conditions described above. Nine dilutions were assessed in triplicates and percentage inhibition calculated as mean ± standard deviation in Microsoft Excel according to the above equation. The results were imported and used for assessing dose-response curves and IC50 values in GraFit software, version 5.0.11 (Erithacus Software Limited). Data were fitted to the equation f(x)=min+max−min/1+(x/IC50)^slope where min is the background, max–min is the y-range, x is the concentration, and slope is the Hill slope.

Row | IC50 | Structure (SMILES)
2 | 2870 ± 400 nM | CC1(C)CC[C@]2(C(=O)O)CC[C@]3(C)C(=CC[C@@H]4[C@@]5(C)CC[C@@H](O)C(C)(C)[C@@H]5[C@H](O)C[C@]43C)[C@@H]2C1 [Compound 14, 3-epi-sumaresinolic acid]
3 | 1840 ± 300 nM | CC1(C)CC[C@]2(C(=O)O)CC[C@]3(C)C(=CC[C@@H]4[C@@]5(C)CC[C@H](O)C(C)(C)[C@@H]5[C@H](O)C[C@]43C)[C@@H]2C1 [Compound 15, Sumaresinolic acid]
4 | 460 ± 70 nM | CC1(C)CC[C@]2(C(=O)O)CC[C@]3(C)C(=CC[C@@H]4[C@@]5(C)C[C@@H](O)[C@H](OC(=O)/C=C\c6ccc(O)cc6)C(C)(C)[C@@H]5CC[C@]43C)[C@@H]2C1 [Compound 16, 3-O-cis-p-coumaroyl-maslinic acid]
5 | 1080 ± 300 nM | CC1(C)CC[C@]2(C(=O)O)CC[C@]3(C)C(=CC[C@@H]4[C@@]5(C)C[C@@H](O)[C@H](OC(=O)/C=C/c6ccc(O)cc6)C(C)(C)[C@@H]5CC[C@]43C)[C@@H]2C1 [Compound 17, 3-O-trans-p-coumaroyl-maslinic acid]
6 | 1600 ± 500 nM | CC1C(C(=O)O)CCC2(C)CCC3(C)C(=CCC4C5(C)CC(O)C(OC(=O)C=Cc6ccc(O)cc6)C(C)(C)C5CCC43C)C12 (stereo not drawn) [Compound 18, 3-O-trans-p-coumaroyl-2α-hydroxydulcioic acid]

Row | Structure (SMILES) | IC50
7 | CC1(C)CC[C@]2(C(=O)O)CC[C@]3(C)C(=CC[C@@H]4[C@@]5(C)C[C@@H](O)[C@H](O)C(C)(C)[C@@H]5CC[C@]43C)[C@@H]2C1 [Compound 13, Maslinic acid] | 3210 ± 800 nM

Target: T1, recombinant human PTP1B
Experiment: High-resolution PTP1B inhibition profiling (biochromatogram of HPLC microfractions)
Type: biochemical
Details: HPLC microfractions of crude ethyl acetate extract, Figure 1; result in words
Protocol: PTP1B inhibition assaying of the defatted extract, fraction F1 (from preparative HPLC: see Section 3.5) and microfractions (obtained as described below in Section 3.4) were performed according to the microplate-based method previously described. In brief, all solutions were prepared in a buffer of 50 mM Tris and 50 mM Bis-Tris containing 100 mM NaCL and adjusted to pH 7. To each well containing microfractions or dilution series of pure compounds were added 18 µL of DMSO and 52 µL of 3.4 mM EDTA in Bis-Tris buffer (to give final well concentrations of 10% DMSO and 1 mM EDTA) as well as 60 µL of a Bis-Tris buffer solution containing 1.5 mM pNPP and 6 mM DTT in phosphate buffer (to give final well concentrations of 0.5 mM pNPP and 2 mM DTT). The microplate was incubated for 10 min at 25 °C, and the reaction was started by addition of 0.001 μg/μL PTP1B stock solution (50 μL) in phosphate buffer (to give a final concentration of 0.05 µg PTP1B per well). The reaction was monitored at 405 nm every 30 s for 10 min to yield the enzyme activity (expressed as cleavage rate AU/s) by using a Thermo Scientific Multiskan FC microplate photometer (Thermo Scientific, Waltham, MA, USA). For each microplate, blank samples (negative controls) containing buffer, enzyme, EDTA, DTT, and pNPP were measured in triplicate, and for the dilution series, RK682 was included as a reference inhibitory compound (i.e., positive control). The percentage inhibition of PTP1B was calculated according to the following equation: % inhibition=(1−SLOPEsample/SLOPEblank)×100
as §1, with “slope. Results are reported as IC50 values ± standard error.” for “slope.”
Microfractionation of the extract of M. albicans for high-resolution PTP1B inhibition profiling was conducted using an Agilent 1200 system (Santa Clara, CA, USA—HPLC system 1) comprising a G1311A quaternary pump, a G1322A degasser, a G1316A thermostatted column compartment, a G1315C photodiode array detector, a G1367C high-performance autosampler, and a G1364C fraction collector, controlled by Agilent ChemStation version B.03.02 software. Separations were performed by using a reversed-phase Phenomenex Luna C18(2) column (150 mm × 4.6 mm i.d., 3 μm particle size, 100 Å pore size) (Phenomenex, Torrance, CA, USA). A binary elution system of water: acetonitrile (95:5, solvent A) and acetonitrile: water (95:5, solvent B), both acidified with 0.1% formic acid, was used with a flow rate of 0.8 mL/min. […]

Row | PTP1B inhibitory activity in high-resolution inhibition profile of crude extract | Structure (SMILES)
8 | PTP1B inhibitors | O=C(/C=C/c1ccc(O)c(O)c1)O[C@@H]1O[C@H](COC(=O)c2cc(O)c(O)c(O)c2)[C@@H](OC(=O)c2cc(O)c(O)c(O)c2)[C@H](O)[C@H]1O [Compound 2, 1-O-(E)-caffeoyl-4,6-di-O-galloyl-β-D-glucopyranose]
9 | PTP1B inhibitors | C[C@@H]1O[C@@H](Oc2c(-c3cc(O)c(O)c(O)c3)oc3cc(O)cc(O)c3c2=O)[C@H](O)[C@H](O)[C@H]1O [Compound 3, myricetin 3-O-α-L-rhamnopyranoside]
10 | PTP1B inhibitors | C[C@@H]1O[C@@H](Oc2c(-c3ccc(O)c(O)c3)oc3cc(O)cc(O)c3c2=O)[C@H](OC(=O)c2cc(O)c(O)c(O)c2)[C@H](O)[C@H]1O [Compound 5, quercetin 3-O-(2″-galloyl)-α-L-rhamnopyranoside]
11 | PTP1B inhibitors | COc1c(O)cc(-c2oc3cc(O)cc(O)c3c(=O)c2O[C@@H]2O[C@@H](C)[C@H](O)[C@@H](O)[C@H]2O)cc1O [Compound 6, mearnsetin 3-O-α-L-rhamnopyranoside]
12 | PTP1B inhibitors | O=c1c(O[C@@H]2OC[C@H](O)[C@H](O)[C@H]2O)c(-c2ccc(O)cc2)oc2cc(O)cc(O)c12 [Compound 8, kaempferol 3-O-α-L-arabinopyranoside]

Reference: PMC6100288 (Molecules : A Journal of Synthetic Chemistry and Natural …, 2018)
